Measurements: US20240082238A1, “COMPOSITIONS AND METHODS FOR TREATING CANCER” (UNIVERSITY OF IOWA RESEARCH FOUNDATION, priority 2021, published 2024)

Columns and labels:
Hec50co tumors [1] = experiment: In vivo tumor accumulation of PTX-OG after peritumoral SC injection; parameters: species or system athymic Nu/Nu mice; conditions: 0.1 mg/kg PTX-OG SC peritumoral, 24 h
Procedure: Effect of drug combination on the in vivo tumor accumulation of PTX In this study, athymic Nu/Nu mice were challenged with 1×10^6 of Hec50co tumor cells per mouse on day zero of the experiment. When the tumor grew to a palpable size range of 100-150 mm^3, as measured by Equation 2, treatments were administered SC at the tumor site (peritumoral). Treatment groups (n=3 per group) included: (i) DPBS treated mice, 0.1 mg/kg PTX-OG, and 0.1 mg/kg PTX-OG+5 mg/kg CIP2b. After 24 hours, mice were euthanized, and tumors were collected and submerged in Hank's Balanced Salt Solution (HBSS) with calcium and magnesium. Tumors were then taken out of HBSS (one at a time to maintain cell viability), placed on a Petri dish, and mechanically minced with a sterile scalpel and forceps into small pieces. Tumor pieces were transferred to 50 mL tubes containing 10 mL of the pre-warmed (37° C.) sterile cell dissociation buffer (HBSS containing 50,000 U of collagenase IV and 100,000 U of DNase I). Samples were incubated at 37° C. under continuous rotation at 300 rpm for 60 minutes in the incubator-shaker. Then, cell suspensions were filtered through a 70 μm cell strainer then a 40 μm cell strainer to remove any aggregates. […] Finally, cell suspensions were acquired using a FACSCalibur flow cytometer, and data were analyzed using FlowJo software.

Hec50co tumors [2] = experiment: Antitumor efficacy study, peritumoral SC injection; type: in vivo, athymic Nu/Nu mice
Procedure: Antitumor efficacy study following subcutaneous injection (SC) at the tumor site (peritumoral). Female athymic Nu/Nu mice were subcutaneously challenged with Hec50co cells (1×10^6 cells/mouse). When mice had palpable tumors, they were randomly distributed into 3 groups: PBS group (n=3), PTX group (n=4), and PTX+CIP2b group (n=4). Then, treatments were administered subcutaneously near the tumor site (i.e., peritumorally) in five doses on days 26, 30, 33, 37, and 40 post-tumor challenge. Each dose consisted of 200 μL of either PBS, 5 mg/kg PTX (Paclitaxel concentrate diluted in DPBS), or 5 mg/kg PTX+5 mg/kg CIP2b (CIP2b in DPBS:Tween-80:ethanol 85:10:5; further dilution was made using DPBS). Body weights and tumor volumes (using Equation 2) were monitored twice a week for up to 2 weeks after the last dose (i.e., up to day 53 post-tumor challenge). On the last day of the study (day 53 post-tumor challenge), mice were euthanized, and tumors were collected and their weights were measured.

tubulin = experiment: Fluorescence-based tubulin polymerization assay; type: biochemical; conditions: 3 μM
From the text: Tubulin polymerization assay. Microtubules are one of the major cytoskeleton components in the cells, and they play an essential role in the spindle formation generated by α and β tubulin polymerization. Agents targeting microtubules function through two different mechanisms. To elaborate, several compounds like taxanes (e.g., PTX) promote the assembly of microtubules and are known to stabilize the microtubes whereas other compounds such as vinca alkaloid and colchicine are known to interrupt the spindle formation via inhibiting the tubulin polymerization; thereby, destabilize the microtubules. The result of both scenarios is metaphase arrest which induces apoptosis. To test the tubulin activity, a fluorescence-based tubulin polymerization assay (Cat. No. BK011P, Cytoskeleton Inc., Denver, CO) was performed according to the manufacturer's instructions. Briefly, stock solutions of PTX and CIP2b (in DMSO) were diluted with UltraPure™ water to make a final concentration of 3 μM. […] Before starting the experiment, the 96-well plate and fluorimeter (SpectraMax M5 Microplate Reader) were pre-warmed to 37° C. […] Samples and tubulin were added to a 96-well plate, and the plate was inserted into the plate reader. Kinetic measurements started immediately, and data were collected and analyzed.

With `CC(=O)O[C@H]1C(=O)[C@@]2(C)[C@H]([C@H](OC(=O)c3ccccc3)[C@]3(O)C[C@H](OC(=O)[C@H](O)[C@@H](NC(=O)c4ccccc4)c4ccccc4)C(C)=C1C3(C)C)[C@]1(OC(C)=O)CO[C@@H]1C[C@@H]2O` [PTX, paclitaxel] the “in vivo intracellular accumulation of PTX-OG by tumor cells vs untreated control” value (Hec50co tumors [1]) was “marginal in vivo intracellular accumulation”, the “average weight of tumors” value (Hec50co tumors [2]; day 53, SC treatment) was “did not show a significant difference against either the untreated group or the combination group” and the “average tumor volumes vs PBS” value (Hec50co tumors [2]; day 53, 5 mg/kg PTX SC, five doses) was “smaller than PBS control mice albeit not significantly”. The “rate of tubulin polymerization” value (tubulin) was “promoted” and the “onset of tubulin polymerization” value (tubulin; tubulin alone 15 min) was “approximately 5 minutes”.
